Test results reported in patent US6368788B1 (priority 1987, dated 2002).
Read-outs that look alike come from different tables or passages of the source. Marks after values point to notes of the source that are not given here.

Assays:
Rauscher MuLV = experiment: Anti-viral response to Rauscher MuLV; format: in vivo, mice
Description: Innate mechanisms of anti-viral immunity are important to survival of the host. The Rauscher murine leukemia virus (MuLV) is an example of a highly virulent animal retrovirus infection, first isolated and characterized by Dr. Rauscher from BALB/c mouse tissues in 1962. […] The virus employed in present GLP/blinded study was a murine leukemia complex known to induce progressive erythroleukemia in mice (i.e., Rauscher MuLV and replication-defective Rauscher spleen focus-forming virus). Disease manifested within about 6 days with death by about 50 days. Measurements of splenomegaly, blood reverse transcriptase, virus plaque assays (i.e., XC-plaque assay for viremia using SC-1 host cells) and serum anti-viral antibody titers were used to assess infection. Spleens achieved about 2.0 grams in weight within 21 days of infection, as compared with a normal spleen weights in an uninfected animals of about 0.1 gram.
Mice were inoculated with Rauscher MuLV complex (0.1 ml/7.8×10^4 PFU/mL) on day 0 and sacrificed on day 21. Test groups were comprised of 10 mice and control groups 6 mice. Control articles included saline and AZT (in drinking water at about 1.25 mg/mouse/day≈63 mg/kg/day/mouse). […] A non-infected group of mice was also sacrificed on day 21 to provide normal control values.
In EXAMPLE 38, SC-1 cells were originally derived from murine embryos, and XC cells (a rat tumor cell line induced by Rous Sarcoma Virus) were obtained from the ATCC in Rockville, Md.

C. albicans = format: in vivo, mice
Staphylococcus aureus [1] = experiment: Survival after Staphylococcus aureus peritonitis, therapeutic treatment 1 hour after challenge; format: in vivo, mice; details: 1 MED
Description: EXAMPLES 32-34, above, test substance (i.e., L-Glu-L-Trp alone or in combination with antibiotic, or antibiotic alone) was injected sc, ip, po one hour after the bacterial challenge.

Staphylococci = experiment: Antibiotic sensitivity (doubling-dilution, MIC-2000) of patient isolates before and after Stage 1; format: cell-based
Description: Antibiotics were administered according to established dosages and routes: i.e., penicillin, Ampicillin, oxacillin, tetracycline, erythromycin, garamycin; administered by intramuscular route. Antibiotics were chosen according to the antibiotic sensitivity of the Staphylococci isolated from the respective patients. (Antibiotic sensitivity was determined by testing staphylococcal isolates for their sensitivity in an antibiotic sensitivity doubling-dilution assay with the aid of the semi-automatic MIC-2000 system, Dynatech, USA).
Staphylococci were isolated from patients before and after treatment in Stage 1 with L-Glu-L-Trp in order to determine whether a favorable reversal of T-lymphocyte immunodeficiency might lead to a change in the antibiotic sensitivity. The isolated bacterial colonies following Stage I were typed as follows: namely, in 16 patients S. aureus, in 34, S. epidermidis, in 2 saprophytic Staphylococci. In all cases the same types of Staphylococci were isolated following treatment with L-Glu-L-Trp, but in 4 patients the predominant Staphylococci in the isolates changed from S. aureus to S. epidermidis (n=2), and saprophytic Staphylococci (n=2).
Antibiotic sensitivity of Staphylococci were determined by doubling-dilution methods with the aid of the semiautomatic MIC-2000 system (Dynatech, USA).

Staphylococcus aureus [2] = experiment: Survival after acute peritonitis with LD100 dose of antibiotic-resistant Staphylococcus aureus, prophylactic treatment; details: for Percentage Survivors: 1 MED
E. coli = experiment: Survival after acute peritonitis with LD100 dose of E. coli; format: in vivo, mice; details: 1 MED
hepatitis B = experiment: Children with chronic persistent hepatitis B; format: in vivo, human
Description: In accord with a USSR Ministry of Health decision 125 children suffering with chronic persistent hepatitis B were entered into this trial over a two month period. Group 1 consisted of 35 children who received decaris immunomodulatory therapy; Group 2, 38 children who received thymalin treatments; Group 3, […] who received L-Glu-L-Trp; and, Group 4, 32 children who received only conventional symptom specific therapy.
L-Glu-L-Trp was administered at a dose of 2 μg/kg of body mass, im, daily for […], and a repeat (identical) course of treatment was administered 10 days after termination of the first course.

YAC-1 target cells = experiment: NK cytotoxic activity of splenocytes on YAC-1 target cells; format: in vivo, C3H/HeJ mice
[3] = test system: Mycobacterium tuberculosis; set-up: species or system human; details: in vivo
Pseudomonas aeruginosa = experiment: Survival after acute peritonitis with LD100 dose of Pseudomonas aeruginosa; format: in vivo, mice; details: 1 MED
[4] = 25 mg/kg, days 0, 1, 2, 3, and 4
[5] = 50 mg/kg, days 0, 1, 2, 3, and 4
[6] = 100 mg/kg, days 0, 1, 2, 3, and 4
[7] = 200 mg/kg, days 0, 1, 2, 3, and 4
[8] = After Stage 1 Treatment (L-Glu-L-Trp only)
[9] = 20 mg/kg, days 0, 1, 2, 3, and 4 (Group 8)
[10] = 20 mg/kg, days −2, −1, 0, +1, and +2 (Group 10)

Cc1cn([C@H]2C[C@H](N=[N+]=[N-])[C@@H](CO)O2)c(=O)[nH]c1=O [AZT, reference compound]
Reduction Splenomegaly (%) (Rauscher MuLV; [4]): 46%
Spleen Weight (mean ± SD) (Rauscher MuLV; [4]): 0.31 ± 0.05
Reduction Splenomegaly (%) (Rauscher MuLV; [5]): 33%
Spleen Weight (mean ± SD) (Rauscher MuLV; [5]): 0.35 ± 0.17
Reduction Splenomegaly (%) (Rauscher MuLV; [6]): 52%
Spleen Weight (mean ± SD) (Rauscher MuLV; [6]): 0.29 ± 0.02
Reduction Splenomegaly (%) (Rauscher MuLV; [7]): 46%
Spleen Weight (mean ± SD) (Rauscher MuLV; [7]): 0.31 ± 0.09

C[C@@H]1[C@H](O)[C@@H](C)/C=C/C=C/C=C/C=C/C=C/C=C/C=C/[C@H](O[C@@H]2O[C@H](C)[C@@H](O)[C@H](N)[C@@H]2O)C[C@@H]2O[C@](O)(C[C@@H](O)C[C@@H](O)[C@H](O)CC[C@@H](O)C[C@@H](O)CC(=O)O[C@H]1C)C[C@H](O)[C@H]2C(=O)O [Amphotericin, reference compound]
Germ Tube (%) (C. albicans; 0.063 mg/kg): 20* %
Germ Tube (%) (C. albicans; 0.125 mg/kg): 17* %
Germ Tube (%) (C. albicans; 0.25 mg/kg): 14* %
Germ Tube (%) (C. albicans; 0.5 mg/kg): 3* %
Germ Tube (%) (C. albicans; 1 mg/kg): 1* %

CC1(C)S[C@@H]2[C@H](NC(=O)[C@H](N)c3ccccc3)C(=O)N2[C@H]1C(=O)O [Ampicillin, reference compound]
Percentage Survivors (Staphylococcus aureus [1]; 24 hours): 75.0* %
Percentage Survivors (Staphylococcus aureus [1]; 48 hours): 44.4* %
Percentage Survivors (Staphylococcus aureus [1]; 72 hours): 30.6* %
Mean minimum inhibitory concentration (MIC) (Staphylococci; [8]): 2.64 ± 0.60 mg/L
Mean minimum inhibitory concentration (MIC) (Staphylococci; Before Treatment): 8.10 ± 0.49 mg/L
Percentage Survivors (Staphylococcus aureus [2]; 24 hours): 75* %
Percentage Survivors (Staphylococcus aureus [2]; 48 hours): 44.4* %
Percentage Survivors (Staphylococcus aureus [2]; 72 hours): 30.6* %
Mean effective dose (MED) for 100% survival after one LD50 dose of methicillin-sensitive staphylococci (Staphylococcus aureus [2]; ip one hour after bacterial challenge): 100 mg/kg
Percentage Survivors (E. coli; 24 hours after injection): 33.3* %
Percentage Survivors (E. coli; 48 hours after injection): 22.2* %
Percentage Survivors (E. coli; 72 hours after injection): 22.2* %

Cc1nnc(SCC2=C(C(=O)O)N3C(=O)[C@@H](NC(=O)Cn4cnnn4)[C@H]3SC2)s1 [Cephamezine]
Mean minimum inhibitory concentration (MIC) (Staphylococci; [8]): 1.33 ± 0.53 mg/L
Mean minimum inhibitory concentration (MIC) (Staphylococci; Before Treatment): 3.52 ± 0.94 mg/L

O=C(Cc1cccs1)N[C@@H]1C(=O)N2C(C(=O)[O-])=C(C[n+]3ccccc3)CS[C@H]12 [Ceporin]
Mean minimum inhibitory concentration (MIC) (Staphylococci; [8]): 1.82 ± 0.67 mg/L
Mean minimum inhibitory concentration (MIC) (Staphylococci; Before Treatment): 5.69 ± 0.86 mg/L

CN[C@@H]1[C@@H](O)[C@@H](O[C@@H]2[C@@H](O)[C@H](O[C@H]3OC(CN)=CC[C@H]3N)[C@@H](N)C[C@H]2N)OC[C@]1(C)O [Cisomycin]
Mean minimum inhibitory concentration (MIC) (Staphylococci; [8]): 1.59 ± 0.58 mg/L
Mean minimum inhibitory concentration (MIC) (Staphylococci; Before Treatment): 3.46 ± 0.90 mg/L

c1ccc([C@H]2CN3CCSC3=N2)cc1 [Descaris]
Percent of Subjects Disease Free at 6 Months After Treatment (hepatitis B; Group 1, Pre-Treatment ALCT Activity None): 100%
Percent of Subjects Disease Free at 6 Months After Treatment (hepatitis B; Group 2, Pre-Treatment ALCT Activity Moderate): 67%
Percent of Subjects Disease Free at 6 Months After Treatment (hepatitis B; Group 3, Pre-Treatment ALCT Activity High): 67%

NC[C@H]1O[C@H](O[C@H]2[C@H](O)[C@@H](O[C@H]3O[C@H](CO)[C@@H](O)[C@H](N)[C@H]3O)[C@H](N)C[C@@H]2N)[C@H](O)[C@@H](O)[C@@H]1O [Kanamycin]
Mean minimum inhibitory concentration (MIC) (Staphylococci; [8]): 2.09 ± 0.54 mg/L
Mean minimum inhibitory concentration (MIC) (Staphylococci; Before Treatment): 6.32 ± 0.58 mg/L

CC(=O)OCC1=C(C(=O)O)N2C(=O)[C@@H](NC(=O)Cc3cccs3)[C@H]2SC1 [Keflin]
Mean minimum inhibitory concentration (MIC) (Staphylococci; [8]): 1.86 ± 0.69 mg/L
Mean minimum inhibitory concentration (MIC) (Staphylococci; Before Treatment): 4.49 ± 0.93 mg/L

Cc1nnc(SCC2=C(C(=O)O)N3C(=O)[C@@H](NC(=O)Cn4cnnn4)[C@H]3SC2)s1 [Kefzol]
Mean minimum inhibitory concentration (MIC) (Staphylococci; [8]): 1.86 ± 0.93 mg/L
Mean minimum inhibitory concentration (MIC) (Staphylococci; Before Treatment): 4.61 ± 0.87 mg/L

O=C(N[C@H](CO)[C@H](O)c1ccc([N+](=O)[O-])cc1)C(Cl)Cl [Levomycetin]
Mean minimum inhibitory concentration (MIC) (Staphylococci; [8]): 4.58 ± 0.67 mg/L
Mean minimum inhibitory concentration (MIC) (Staphylococci; Before Treatment): 9.17 ± 0.36 mg/L

Cc1onc(-c2ccccc2)c1C(=O)N[C@@H]1C(=O)N2[C@@H]1SC(C)(C)[C@@H]2C(=O)O [Oxacillin]
Mean minimum inhibitory concentration (MIC) (Staphylococci; [8]): 1.56 ± 0.45 mg/L
Mean minimum inhibitory concentration (MIC) (Staphylococci; Before Treatment): 5.11 ± 0.63 mg/L

CC1(C)S[C@@H]2[C@H](NC(=O)Cc3ccccc3)C(=O)N2[C@H]1C(=O)O [Penicillin]
Mean minimum inhibitory concentration (MIC) (Staphylococci; [8]): 2.52 ± 0.70 mg/L
Mean minimum inhibitory concentration (MIC) (Staphylococci; Before Treatment): 9.45 ± 0.28 mg/L

[H]/N=C(/N)N[C@H]1[C@H](O)[C@@H](O)[C@H](O[C@@H]2O[C@@H](C)[C@](O)(C=O)[C@H]2O[C@@H]2O[C@@H](CO)[C@H](O)[C@@H](O)[C@@H]2NC)[C@@H](N/C(N)=N\[H])[C@@H]1O [Streptomycin]
Mean minimum inhibitory concentration (MIC) (Staphylococci; [8]): 3.39 ± 0.66 mg/L
Mean minimum inhibitory concentration (MIC) (Staphylococci; Before Treatment): 6.71 ± 0.59 mg/L

O=P1(N(CCCl)CCCl)NCCCO1 (centres unmarked) [cyclophosphamide, Cyclophosphamide, reference compound]
% Cytotoxicity (mean +/− S.D.) (YAC-1 target cells; dose 50 (μg/kg), reference treatment): 6.4 ± 0.7%
Cytotoxicity Change (%) (YAC-1 target cells; dose 50, vs saline): −25 ↓ %
NK activity (YAC-1 target cells; reference treatment): decreased NK activity

c1ccc([C@H]2CN3CCSC3=N2)cc1 [decaris]
Considerable Improvement, % of patients [3]: 5%
Considerable Improvement, No. of patients [3]: 1
Improvement, % of patients [3]: 82%
Improvement, No. of patients [3]: 18
No Change, % of patients [3]: 13%
No Change, No. of patients [3]: 3
Patients with closure of degeneration foci and cavities in the lungs [3]: 10
Patients with closure of foci and cavities [3]: 45%
Patients with “considerable improvement” [3]: 5%
Patients with “improvement” [3]: 18
Response rate [3]: 86%

Gentamycin [reference compound]
Percentage Survivors (Pseudomonas aeruginosa; 24 hours after injection): 27.8* %
Percentage Survivors (Pseudomonas aeruginosa; 48 hours after injection): 27.8* %
Percentage Survivors (Pseudomonas aeruginosa; 96 hours after injection): 27.8* %
Mean minimum inhibitory concentration (MIC) (Staphylococci; [8]): 1.32 ± 0.49 mg/L
Mean minimum inhibitory concentration (MIC) (Staphylococci; Before Treatment): 5.47 ± 0.92 mg/L

Poly(IC)
Reduction Splenomegaly (%) (Rauscher MuLV; [9]): 27%
Spleen Weight (mean ± SD) (Rauscher MuLV; [9]): 0.37 ± 0.22
Reduction Splenomegaly (%) (Rauscher MuLV; [10]): −78%
Spleen Weight (mean ± SD) (Rauscher MuLV; [10]): 0.72 ± 0.29
